Key:
Assay in all cases: Post-emergence efficacy, glasshouse pot test
Format in all cases: in vivo
Conditions in all cases: post-emergence application at 1000 g/ha; evaluated after 13 days; five point scale
[1] = tested on: Alopecurus myosuroides (ALOMY)
Description: (§1) B1 Post-emergence Efficacy Seeds of a variety of test species are sown in standard soil in pots:—Solanum nigrum (SOLNI), Amaranthus retoflexus (AMARE), Setaria faberi (SETFA), Alopecurus myosuroides (ALOMY), Echinochloa crus-galli (ECHCG), Ipomoea hederacea (IPOHE). After 8 days cultivation (post-emergence) under controlled conditions in a glasshouse (at 24/16° C., day/night; 14 hours light; 65% humidity), the plants are sprayed with an aqueous spray solution derived from the formulation of the technical active ingredient in acetone/water (50:50) solution containing 0.5% Tween 20 (polyoxyethelyene sorbitan monolaurate, CAS RN 9005-64-5). Compounds are applied at 1000 g/ha. The test plants are then grown in a glasshouse under controlled conditions in a glasshouse (at 24/16° C., day/night; 14 hours light; 65% humidity) and watered twice daily. After 13 days, the test is evaluated for the percentage damage caused to the plant. The biological activities are shown below in Table 13, on a five point scale (5=80-100%; 4=60-79%; 3=40-59%; 2=20-39%; 1=0-19%).

[2] = tested on: Amaranthus retoflexus (AMARE)
Description: as §1

[3] = tested on: Echinochloa crus-galli (ECHCG)
Description: as §1

[4] = tested on: Ipomoea hederacea (IPOHE)
Description: as §1

[5] = tested on: Setaria faberi (SETFA)
Description: as §1

[6] = tested on: Solanum nigrum (SOLNI)
Description: as §1

CC(C)C(=O)Oc1c(-c2c(F)ccc(Cl)c2OCc2ccccc2)c(=O)n(CC(F)F)c2ncccc12 [Compound 7.001]
percentage damage caused to the plant, ALOMY [1]: 1 (1=0-19%)
percentage damage caused to the plant, AMARE [2]: 5 (5=80-100%)
percentage damage caused to the plant, ECHCG [3]: 1 (1=0-19%)
percentage damage caused to the plant, IPOHE [4]: 5 (5=80-100%)
percentage damage caused to the plant, SETFA [5]: 1 (1=0-19%)
percentage damage caused to the plant, SOLNI [6]: 5 (5=80-100%)

C#CCn1c(=O)c(-c2c(F)ccc(Cl)c2OCc2ccccc2)c(O)c2c(OC)ccnc21 [Compound 6.002]
percentage damage caused to the plant, ALOMY [1]: 5 (5=80-100%)
percentage damage caused to the plant, AMARE [2]: 5 (5=80-100%)
percentage damage caused to the plant, ECHCG [3]: 5 (5=80-100%)
percentage damage caused to the plant, IPOHE [4]: 5 (5=80-100%)
percentage damage caused to the plant, SETFA [5]: 5 (5=80-100%)
percentage damage caused to the plant, SOLNI [6]: 5 (5=80-100%)

COc1ccnc2c1c(O)c(-c1c(F)ccc(Cl)c1OCc1ccccc1)c(=O)n2CC(F)F [Compound 8.002]
percentage damage caused to the plant, ALOMY [1]: 4 (4=60-79%)
percentage damage caused to the plant, AMARE [2]: 5 (5=80-100%)
percentage damage caused to the plant, ECHCG [3]: 4 (4=60-79%)
percentage damage caused to the plant, IPOHE [4]: 5 (5=80-100%)
percentage damage caused to the plant, SETFA [5]: 4 (4=60-79%)
percentage damage caused to the plant, SOLNI [6]: 5 (5=80-100%)

C#CCn1c(=O)c(-c2c(Cl)ccc(Cl)c2OCc2ccccc2)c(OC(=O)C(C)C)c2cccnc21 [Compound 1.001, [3-(2-Benzyloxy-3,6-dichloro-phenyl)-2-oxo-1-prop-2-ynyl-1,8-naph-thyridin-4-yl]2-methylpropanoate]
percentage damage caused to the plant, ALOMY [1]: 2 (2=20-39%)
percentage damage caused to the plant, AMARE [2]: 5 (5=80-100%)
percentage damage caused to the plant, ECHCG [3]: 4 (4=60-79%)
percentage damage caused to the plant, IPOHE [4]: 5 (5=80-100%)
percentage damage caused to the plant, SETFA [5]: 4 (4=60-79%)
percentage damage caused to the plant, SOLNI [6]: 5 (5=80-100%)

C#CCn1c(=O)c(-c2c(F)ccc(Cl)c2OCc2ccccc2)c(O)c2cccnc21 [Compound 6.001]
percentage damage caused to the plant, ALOMY [1]: 3 (3=40-59%)
percentage damage caused to the plant, AMARE [2]: 5 (5=80-100%)
percentage damage caused to the plant, ECHCG [3]: 4 (4=60-79%)
percentage damage caused to the plant, IPOHE [4]: 5 (5=80-100%)
percentage damage caused to the plant, SETFA [5]: 2 (2=20-39%)
percentage damage caused to the plant, SOLNI [6]: 5 (5=80-100%)

O=c1c(-c2cccc(Cl)c2OCc2ccccc2)c(O)c2cccnc2n1CC(F)F [Compound 12.001]
percentage damage caused to the plant, ALOMY [1]: 1 (1=0-19%)
percentage damage caused to the plant, AMARE [2]: 5 (5=80-100%)
percentage damage caused to the plant, ECHCG [3]: 1 (1=0-19%)
percentage damage caused to the plant, IPOHE [4]: 5 (5=80-100%)
percentage damage caused to the plant, SETFA [5]: 1 (1=0-19%)
percentage damage caused to the plant, SOLNI [6]: 5 (5=80-100%)

CC(C)C(=O)Oc1c(-c2c(Cl)ccc(Cl)c2OCc2ccccc2)c(=O)n(CC(F)F)c2ncccc12 [Compound 3.001]
percentage damage caused to the plant, ALOMY [1]: 2 (2=20-39%)
percentage damage caused to the plant, AMARE [2]: 5 (5=80-100%)
percentage damage caused to the plant, ECHCG [3]: 2 (2=20-39%)
percentage damage caused to the plant, IPOHE [4]: 5 (5=80-100%)
percentage damage caused to the plant, SETFA [5]: 1 (1=0-19%)
percentage damage caused to the plant, SOLNI [6]: 5 (5=80-100%)

COc1ccnc2c1c(O)c(-c1c(Cl)ccc(Cl)c1OCc1ccccc1)c(=O)n2CC(F)F [Compound 4.007]
percentage damage caused to the plant, ALOMY [1]: 3 (3=40-59%)
percentage damage caused to the plant, AMARE [2]: 5 (5=80-100%)
percentage damage caused to the plant, ECHCG [3]: 3 (3=40-59%)
percentage damage caused to the plant, IPOHE [4]: 5 (5=80-100%)
percentage damage caused to the plant, SETFA [5]: 2 (2=20-39%)
percentage damage caused to the plant, SOLNI [6]: 5 (5=80-100%)

C#CCn1c(=O)c(-c2cccc(Cl)c2OCc2ccccc2)c(OC(=O)C(C)C)c2cccnc21 [Compound 9.001]
percentage damage caused to the plant, ALOMY [1]: 1 (1=0-19%)
percentage damage caused to the plant, AMARE [2]: 3 (3=40-59%)
percentage damage caused to the plant, ECHCG [3]: 2 (2=20-39%)
percentage damage caused to the plant, IPOHE [4]: 5 (5=80-100%)
percentage damage caused to the plant, SETFA [5]: 1 (1=0-19%)
percentage damage caused to the plant, SOLNI [6]: 5 (5=80-100%)

Cc1ccc(COc2c(Cl)ccc(Cl)c2-c2c(OC(=O)C(C)C)c3cccnc3n(CC(F)F)c2=O)cc1 [Compound 3.004]
percentage damage caused to the plant, ALOMY [1]: 1 (1=0-19%)
percentage damage caused to the plant, AMARE [2]: 4 (4=60-79%)
percentage damage caused to the plant, ECHCG [3]: 1 (1=0-19%)
percentage damage caused to the plant, IPOHE [4]: 5 (5=80-100%)
percentage damage caused to the plant, SETFA [5]: 1 (1=0-19%)
percentage damage caused to the plant, SOLNI [6]: 5 (5=80-100%)

CC(C)C(=O)Oc1c(-c2c(F)ccc(Cl)c2OCc2ccccc2)c(=O)n(CC(F)F)c2nccnc12 [Compound 7.003]
percentage damage caused to the plant, ALOMY [1]: 2 (2=20-39%)
percentage damage caused to the plant, AMARE [2]: 5 (5=80-100%)
percentage damage caused to the plant, ECHCG [3]: 2 (2=20-39%)
percentage damage caused to the plant, IPOHE [4]: 5 (5=80-100%)
percentage damage caused to the plant, SETFA [5]: 5 (5=80-100%)
percentage damage caused to the plant, SOLNI [6]: 5 (5=80-100%)

O=c1c(-c2c(Cl)ccc(Cl)c2OCc2ccccc2)c(O)c2nccnc2n1CC(F)F [Compound 4.008]
percentage damage caused to the plant, ALOMY [1]: 4 (4=60-79%)
percentage damage caused to the plant, AMARE [2]: 5 (5=80-100%)
percentage damage caused to the plant, ECHCG [3]: 5 (5=80-100%)
percentage damage caused to the plant, IPOHE [4]: 5 (5=80-100%)
percentage damage caused to the plant, SETFA [5]: 5 (5=80-100%)
percentage damage caused to the plant, SOLNI [6]: 5 (5=80-100%)

C#CCn1c(=O)c(-c2c(F)ccc(Cl)c2OCc2ccccc2)c(OC(=O)C(C)C)c2nccnc21 [Compound 5.003]
percentage damage caused to the plant, ALOMY [1]: 2 (2=20-39%)
percentage damage caused to the plant, AMARE [2]: 5 (5=80-100%)
percentage damage caused to the plant, ECHCG [3]: 2 (2=20-39%)
percentage damage caused to the plant, IPOHE [4]: 5 (5=80-100%)
percentage damage caused to the plant, SETFA [5]: 5 (5=80-100%)
percentage damage caused to the plant, SOLNI [6]: 5 (5=80-100%)

C#CCn1c(=O)c(-c2c(F)ccc(Cl)c2OCc2ccccc2)c(OC(=O)C(C)C)c2cccnc21 [Compound 5.001]
percentage damage caused to the plant, ALOMY [1]: 1 (1=0-19%)
percentage damage caused to the plant, AMARE [2]: 5 (5=80-100%)
percentage damage caused to the plant, ECHCG [3]: 3 (3=40-59%)
percentage damage caused to the plant, IPOHE [4]: 5 (5=80-100%)
percentage damage caused to the plant, SETFA [5]: 2 (2=20-39%)
percentage damage caused to the plant, SOLNI [6]: 5 (5=80-100%)

O=c1c(-c2cccc(Cl)c2OCc2ccccc2)c(O)c2nccnc2n1CC(F)F [Compound 12.003]
percentage damage caused to the plant, ALOMY [1]: 2 (2=20-39%)
percentage damage caused to the plant, AMARE [2]: 5 (5=80-100%)
percentage damage caused to the plant, ECHCG [3]: 5 (5=80-100%)
percentage damage caused to the plant, IPOHE [4]: 5 (5=80-100%)
percentage damage caused to the plant, SETFA [5]: 5 (5=80-100%)
percentage damage caused to the plant, SOLNI [6]: 5 (5=80-100%)

O=c1c(-c2c(Cl)ccc(Cl)c2OCc2ccc(Cl)c(Cl)c2)c(O)c2cccnc2n1CC(F)F [Compound 4.005]
percentage damage caused to the plant, ALOMY [1]: 1 (1=0-19%)
percentage damage caused to the plant, AMARE [2]: 5 (5=80-100%)
percentage damage caused to the plant, ECHCG [3]: 1 (1=0-19%)
percentage damage caused to the plant, IPOHE [4]: 5 (5=80-100%)
percentage damage caused to the plant, SETFA [5]: 1 (1=0-19%)
percentage damage caused to the plant, SOLNI [6]: 5 (5=80-100%)

CC(C)C(=O)Oc1c(-c2cccc(Cl)c2OCc2ccccc2)c(=O)n(CC(F)F)c2nccnc12 [Compound 11.003]
percentage damage caused to the plant, ALOMY [1]: 2 (2=20-39%)
percentage damage caused to the plant, AMARE [2]: 5 (5=80-100%)
percentage damage caused to the plant, ECHCG [3]: 5 (5=80-100%)
percentage damage caused to the plant, IPOHE [4]: 5 (5=80-100%)
percentage damage caused to the plant, SETFA [5]: 5 (5=80-100%)
percentage damage caused to the plant, SOLNI [6]: 5 (5=80-100%)

C#CCn1c(=O)c(-c2c(Cl)ccc(Cl)c2OCc2ccc(C)cc2)c(O)c2cccnc21 [Compound 2.004]
percentage damage caused to the plant, ALOMY [1]: 4 (4=60-79%)
percentage damage caused to the plant, AMARE [2]: 5 (5=80-100%)
percentage damage caused to the plant, ECHCG [3]: 4 (4=60-79%)
percentage damage caused to the plant, IPOHE [4]: 5 (5=80-100%)
percentage damage caused to the plant, SETFA [5]: 4 (4=60-79%)
percentage damage caused to the plant, SOLNI [6]: 5 (5=80-100%)

C#CCn1c(=O)c(-c2cccc(Cl)c2OCc2ccccc2)c(OC(=O)C(C)C)c2nccnc21 [Compound 9.003]
percentage damage caused to the plant, ALOMY [1]: 2 (2=20-39%)
percentage damage caused to the plant, AMARE [2]: 4 (4=60-79%)
percentage damage caused to the plant, ECHCG [3]: 5 (5=80-100%)
percentage damage caused to the plant, IPOHE [4]: 5 (5=80-100%)
percentage damage caused to the plant, SETFA [5]: 5 (5=80-100%)
percentage damage caused to the plant, SOLNI [6]: 5 (5=80-100%)

O=c1c(-c2c(Cl)ccc(Cl)c2OCc2ccccc2)c(O)c2cccnc2n1CC(F)F [Compound 4.001]
percentage damage caused to the plant, ALOMY [1]: 4 (4=60-79%)
percentage damage caused to the plant, AMARE [2]: 5 (5=80-100%)
percentage damage caused to the plant, ECHCG [3]: 4 (4=60-79%)
percentage damage caused to the plant, IPOHE [4]: 5 (5=80-100%)
percentage damage caused to the plant, SETFA [5]: 1 (1=0-19%)
percentage damage caused to the plant, SOLNI [6]: 5 (5=80-100%)

COc1ccnc2c1c(OC(=O)C(C)C)c(-c1c(Cl)ccc(Cl)c1OCc1ccccc1)c(=O)n2CC(F)F [Compound 3.007]
percentage damage caused to the plant, ALOMY [1]: 1 (1=0-19%)
percentage damage caused to the plant, AMARE [2]: 4 (4=60-79%)
percentage damage caused to the plant, ECHCG [3]: 1 (1=0-19%)
percentage damage caused to the plant, IPOHE [4]: 2 (2=20-39%)
percentage damage caused to the plant, SETFA [5]: 1 (1=0-19%)
percentage damage caused to the plant, SOLNI [6]: 2 (2=20-39%)
